From ChEMBL document CHEMBL2440092, “Investigation of aryl halides as ketone bioisosteres: refinement of potent and selective inhibitors of human cytochrome P450 19A1 (aromatase)” (Bioorg Med Chem Lett, 2013) come the findings set out here.

The assay has as its target T1, Aromatase (Homo sapiens, UniProt P11511).
T1 sequence (P11511 whole entry): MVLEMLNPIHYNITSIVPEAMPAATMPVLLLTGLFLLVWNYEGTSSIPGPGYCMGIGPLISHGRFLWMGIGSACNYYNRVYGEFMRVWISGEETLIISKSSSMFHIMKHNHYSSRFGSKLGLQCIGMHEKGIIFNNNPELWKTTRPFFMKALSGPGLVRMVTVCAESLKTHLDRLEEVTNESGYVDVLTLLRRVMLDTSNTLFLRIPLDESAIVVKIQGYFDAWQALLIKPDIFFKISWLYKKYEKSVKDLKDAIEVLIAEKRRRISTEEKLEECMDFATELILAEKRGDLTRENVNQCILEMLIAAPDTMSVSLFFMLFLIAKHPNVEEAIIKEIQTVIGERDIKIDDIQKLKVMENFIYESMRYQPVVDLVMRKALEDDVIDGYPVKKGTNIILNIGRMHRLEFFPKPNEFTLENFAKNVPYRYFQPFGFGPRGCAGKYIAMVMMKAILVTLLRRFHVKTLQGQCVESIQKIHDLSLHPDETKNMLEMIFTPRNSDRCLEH
Description: Inhibition of recombinant human aromatase using O-dibenzylfluorescein benzyl ester as substrate by fluorometric assay

By Ki is commonly meant a dissociation constant, usually derived from enzyme kinetics or from competition with a known ligand. Read a high Ki as lower affinity. `COCO[C@@H](c1ccc(F)cc1)[C@@H](Cn1ccnn1)c1ccccc1` showed an inhibition constant Ki of 80 nM.
With `CC(=O)O[C@@H](c1ccccc1)[C@H](Cn1ccnn1)c1ccc(Br)cc1`, the Ki was found to be 647 nM. This Ki is about 8.1-fold higher than that of the molecule before.
`COCO[C@@H](c1ccccc1)[C@H](Cn1ccnn1)c1ccc(Br)cc1` showed a Ki of 20 nM. This Ki lies about 32-fold lower than the previous one.
To `COCO[C@@H](c1ccccc1)[C@@H](Cn1ccnn1)c1ccc(Br)cc1` belongs 111 nM; to `O[C@@H](c1ccccc1)[C@@H](Cn1ccnn1)c1ccc(Br)cc1`, 820 nM; to `CC(=O)O[C@@H](c1ccc(F)cc1)[C@H](Cn1ccnn1)c1ccccc1`, 350 nM.
Molecule `O[C@@H](c1ccccc1)[C@H](Cn1ccnn1)c1ccc(Br)cc1` returned an inhibitory constant (Ki) of 841 nM.
In the case of `COCO[C@@H](c1ccc(Br)cc1)[C@H](Cn1ccnn1)c1ccccc1` it was 70 nM; in that of `CC(=O)O[C@@H](c1ccccc1)[C@@H](Cn1ccnn1)c1ccc(Br)cc1`, 237 nM; in that of `CC(=O)O[C@@H](c1ccc(F)cc1)[C@@H](Cn1ccnn1)c1ccccc1`, 110 nM.
As for `CC(=O)O[C@@H](c1ccc(Br)cc1)[C@@H](Cn1ccnn1)c1ccccc1`, the Ki worked out at 90 nM.
With `COCO[C@@H](c1ccc(Br)cc1)[C@@H](Cn1ccnn1)c1ccccc1`, the Ki is 20 nM.
For `O[C@@H](c1ccc(F)cc1)[C@H](Cn1ccnn1)c1ccccc1`, the inhibitory constant (Ki) amounted to 200 nM.
On to `O[C@@H](c1ccc(F)cc1)[C@@H](Cn1ccnn1)c1ccccc1`, for which the Ki was 330 nM.
On to `COCO[C@@H](c1ccc(F)cc1)[C@H](Cn1ccnn1)c1ccccc1`, for which the affinity corresponds to a Ki of 160 nM. Against the preceding molecule, the Ki is about 2.1-fold lower.
